Here are results for ten molecules from patent US20210038607A1, “OXADIAZOLYLTHIOPHENE DERIVATIVES USEFUL AS HISTONE DEACETYLASE INHIBITORS” (Karus Therapeutics Limited, priority 2018, published 2021).

For orientation: IC50 means the concentration that inhibits the measured activity by half.

In assay [1] the target is T1, Human HDAC1 (Homo sapiens, UniProt Q13547).
T1 construct: full length with C-terminal His-tag and C-terminal FLAG-tag; His (C); FLAG (C); host or cells: baculovirus expression system
T1 sequence (Q13547 whole entry): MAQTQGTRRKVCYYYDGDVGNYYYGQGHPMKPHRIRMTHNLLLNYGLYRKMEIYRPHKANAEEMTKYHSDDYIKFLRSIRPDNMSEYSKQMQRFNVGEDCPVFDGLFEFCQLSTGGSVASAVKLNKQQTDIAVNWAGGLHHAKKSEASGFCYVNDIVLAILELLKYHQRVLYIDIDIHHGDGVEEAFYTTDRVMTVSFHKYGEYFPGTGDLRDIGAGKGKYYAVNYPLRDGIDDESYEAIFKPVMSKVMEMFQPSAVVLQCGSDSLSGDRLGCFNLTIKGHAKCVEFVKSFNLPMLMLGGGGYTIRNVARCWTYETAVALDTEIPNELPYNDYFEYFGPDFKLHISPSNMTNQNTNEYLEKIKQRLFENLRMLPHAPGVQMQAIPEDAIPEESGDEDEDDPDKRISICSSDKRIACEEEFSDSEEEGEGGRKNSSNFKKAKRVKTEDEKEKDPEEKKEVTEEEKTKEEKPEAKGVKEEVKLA
Put plainly: HDAC1 biochemical assay, AMC-labeled peptide substrate. As to conditions: read-out: HDAC Isoform IC50 (nM) 1. The method, boiled down:
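Two-step fluorogenic read: HDAC1 deacetylates 50 μM acetyl-lysine AMC peptide RHKK(Ac)AMC for 1 h at 30° C (pH 8.0, 1% DMSO, with compound), then developer digests the product for fluorescence at Ex/Em 360/460. Enzyme is full-length human, His/FLAG-tagged, insect-cell expressed, at 0.3 ng/ul.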

For assay [2], the target named is T2, Human HDAC4 (Homo sapiens, UniProt P56524).
T2 construct: amino acids 627-1085 with N-terminal GST tag; GST (N); host or cells: baculovirus expression system
T2 sequence (P56524 627-1084 limits assumed): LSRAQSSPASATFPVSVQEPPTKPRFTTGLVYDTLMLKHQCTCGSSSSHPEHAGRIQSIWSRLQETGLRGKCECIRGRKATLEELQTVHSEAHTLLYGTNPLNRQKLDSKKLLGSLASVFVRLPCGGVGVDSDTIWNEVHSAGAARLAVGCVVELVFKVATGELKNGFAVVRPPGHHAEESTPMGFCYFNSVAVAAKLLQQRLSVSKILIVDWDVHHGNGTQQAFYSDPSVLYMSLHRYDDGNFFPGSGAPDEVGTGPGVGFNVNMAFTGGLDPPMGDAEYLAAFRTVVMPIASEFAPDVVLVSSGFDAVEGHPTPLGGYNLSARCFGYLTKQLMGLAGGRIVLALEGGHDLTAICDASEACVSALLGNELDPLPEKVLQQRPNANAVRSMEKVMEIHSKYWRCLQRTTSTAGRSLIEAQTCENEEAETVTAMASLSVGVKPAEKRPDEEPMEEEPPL
Put plainly: HDAC4 biochemical assay, class IIa-specific substrate. The following applies: read-out: HDAC Isoform IC50 (nM) 4. In outline:
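Two-step fluorogenic read-out: deacetylated BOC-Lys(trifluoroacetyl)-AMC (50 μM) was digested by developer and measured at Ex/Em 360/460. Deacetylation by 0.004 ng/ul HDAC4 (aa 627-1085, N-terminal GST) ran 30 min at room temperature, pH 8.0 Tris buffer, 1 mg/mL BSA, 1% DMSO.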

Assay [3] concerns the target T3, Human HDAC5 (Homo sapiens, UniProt Q9UQL6).
T3 construct: full length with C-terminal His tag, MW=51.1 kDa; His (C); host or cells: baculovirus expression system
Put plainly: HDAC5 biochemical assay, class IIa-specific substrate. The following applies: read-out: HDAC Isoform IC50 (nM) 5. The method, boiled down: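 Two-step fluorogenic read-out: deacetylated trifluoroacetyl-lysine AMC substrate (50 μM) digested by developer, measured at Ex/Em 360/460. Deacetylation step: 0.05 ng/ul His-tagged full-length baculoviral enzyme with compound, 30 min, room temperature, pH 8.0 Tris with 1 mg/mL BSA and 1% DMSO.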

Assay [4] concerns the target T4, Recombinant human HDAC6 (Homo sapiens, UniProt Q9UBN7).
T4 construct: full length, MW=159 kDa; GST (N); host or cells: Sf9 insect cells (baculovirus)
T4 sequence (Q9UBN7 1-1215): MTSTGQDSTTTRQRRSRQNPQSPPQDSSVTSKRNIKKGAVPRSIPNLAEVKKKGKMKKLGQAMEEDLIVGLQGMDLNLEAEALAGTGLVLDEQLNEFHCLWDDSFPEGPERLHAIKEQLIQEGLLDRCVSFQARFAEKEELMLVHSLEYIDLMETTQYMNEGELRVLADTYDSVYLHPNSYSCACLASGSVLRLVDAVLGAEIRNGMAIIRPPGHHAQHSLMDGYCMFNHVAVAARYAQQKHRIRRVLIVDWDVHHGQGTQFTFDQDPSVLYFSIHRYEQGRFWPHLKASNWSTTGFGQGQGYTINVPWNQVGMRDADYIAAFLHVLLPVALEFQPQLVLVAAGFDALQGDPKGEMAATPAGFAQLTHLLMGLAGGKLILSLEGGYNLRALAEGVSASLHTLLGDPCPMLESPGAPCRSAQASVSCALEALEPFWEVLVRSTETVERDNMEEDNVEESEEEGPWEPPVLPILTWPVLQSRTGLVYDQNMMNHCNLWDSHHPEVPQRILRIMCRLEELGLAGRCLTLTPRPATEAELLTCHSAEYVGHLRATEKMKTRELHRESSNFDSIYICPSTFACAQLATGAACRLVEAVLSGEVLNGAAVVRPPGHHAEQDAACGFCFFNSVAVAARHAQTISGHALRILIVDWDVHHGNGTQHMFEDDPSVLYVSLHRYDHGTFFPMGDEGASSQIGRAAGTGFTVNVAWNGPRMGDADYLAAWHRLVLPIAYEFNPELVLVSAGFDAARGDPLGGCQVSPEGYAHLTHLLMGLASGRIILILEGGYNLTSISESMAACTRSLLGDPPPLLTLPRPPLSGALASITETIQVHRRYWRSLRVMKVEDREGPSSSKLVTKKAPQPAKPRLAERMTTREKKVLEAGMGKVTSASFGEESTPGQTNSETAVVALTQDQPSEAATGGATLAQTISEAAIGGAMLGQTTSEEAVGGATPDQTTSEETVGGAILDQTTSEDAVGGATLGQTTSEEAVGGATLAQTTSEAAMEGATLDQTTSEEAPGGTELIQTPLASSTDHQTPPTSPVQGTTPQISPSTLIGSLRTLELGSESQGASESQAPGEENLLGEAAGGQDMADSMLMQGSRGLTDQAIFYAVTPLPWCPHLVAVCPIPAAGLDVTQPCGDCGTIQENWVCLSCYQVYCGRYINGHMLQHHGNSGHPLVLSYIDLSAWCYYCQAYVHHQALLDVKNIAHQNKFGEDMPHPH
Put plainly: HDAC6 biochemical assay, AMC-labeled peptide substrate. As to conditions: HDAC6; read-out: HDAC Isoform IC50 (nM) 6. The method, boiled down:
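Two-step fluorogenic read-out: enzyme deacetylates 50 μM RHKK(Ac)AMC for 1 h at 30° C in pH 8.0 Tris buffer with BSA and 1% DMSO, then developer cleavage gives signal at Ex 360/Em 460. Enzyme: 0.3 ng/ul recombinant full-length human HDAC6, GST-tagged, Sf9-expressed.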

Assay [5] addresses T5, Human HDAC7 (Homo sapiens, UniProt Q8WUI4).
T5 construct: (a.a. 518-end) with N-terminal GST tag; GST (N); host or cells: baculovirus expression system
T5 sequence (Q8WUI4 518-952 limits assumed): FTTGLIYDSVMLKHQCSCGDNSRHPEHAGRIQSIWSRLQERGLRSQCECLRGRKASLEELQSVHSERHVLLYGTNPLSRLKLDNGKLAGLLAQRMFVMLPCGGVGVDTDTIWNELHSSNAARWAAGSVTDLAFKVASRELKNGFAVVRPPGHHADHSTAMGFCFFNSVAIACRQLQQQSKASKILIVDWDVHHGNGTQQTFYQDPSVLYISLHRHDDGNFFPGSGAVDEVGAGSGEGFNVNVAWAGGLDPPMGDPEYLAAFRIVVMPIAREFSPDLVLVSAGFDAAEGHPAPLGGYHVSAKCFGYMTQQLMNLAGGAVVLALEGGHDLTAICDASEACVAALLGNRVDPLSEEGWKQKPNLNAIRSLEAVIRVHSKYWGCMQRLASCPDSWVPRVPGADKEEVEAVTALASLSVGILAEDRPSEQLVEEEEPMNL
Put plainly: HDAC7 biochemical assay, class IIa-specific substrate. The following applies: read-out: HDAC Isoform IC50 (nM) 7. In outline: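 Two-step fluorogenic readout: class IIa-selective trifluoroacetyl-lysine AMC substrate (50 μM) deacetylated by N-terminal GST-HDAC7 fragment (0.001 ng/ul), then digested by developer, Ex/Em 360/460. Reaction: 30 min, room temperature, Tris-HCl pH 8.0, NaCl/KCl/MgCl2, 1 mg/mL BSA, 1% DMSO.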

Assay [6] concerns the target T6, Human HDAC9 (Homo sapiens, UniProt Q9UKV0).
T6 construct: amino acids 604-1066 with C-terminal His tag; His (C); host or cells: baculovirus expression system
Put plainly: HDAC9 biochemical assay, class IIa-specific substrate. The following applies: read-out: HDAC Isoform IC50 (nM) 9. In outline:
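HDAC9 residues 604-1066 (C-terminal His tag, baculovirus-expressed) at 0.06 ng/ul with 50 μM class IIa substrate Boc-Lys(trifluoroacetyl)-AMC in Tris-HCl pH 8.0 buffer with BSA and 1% DMSO. 30 min at room temperature, then developer added; fluorescence read at 360/460 nm Ex/Em.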

T6 sequence (Q9UKV0 604-1066 isoform Q9UKV0-5): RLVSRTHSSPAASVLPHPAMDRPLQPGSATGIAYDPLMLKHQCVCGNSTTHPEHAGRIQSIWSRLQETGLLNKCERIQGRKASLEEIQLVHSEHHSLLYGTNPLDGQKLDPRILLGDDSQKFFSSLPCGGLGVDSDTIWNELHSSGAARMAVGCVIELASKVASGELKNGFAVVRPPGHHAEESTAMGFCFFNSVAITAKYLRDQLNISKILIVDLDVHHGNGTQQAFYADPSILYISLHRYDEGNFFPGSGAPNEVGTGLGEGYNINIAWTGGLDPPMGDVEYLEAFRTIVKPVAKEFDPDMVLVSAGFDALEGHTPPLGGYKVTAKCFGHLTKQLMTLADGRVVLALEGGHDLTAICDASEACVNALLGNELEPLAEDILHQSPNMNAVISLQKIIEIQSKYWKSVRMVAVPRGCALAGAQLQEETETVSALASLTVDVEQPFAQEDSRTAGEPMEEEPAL
T3 sequence (Q9UQL6 656-1122 limits assumed): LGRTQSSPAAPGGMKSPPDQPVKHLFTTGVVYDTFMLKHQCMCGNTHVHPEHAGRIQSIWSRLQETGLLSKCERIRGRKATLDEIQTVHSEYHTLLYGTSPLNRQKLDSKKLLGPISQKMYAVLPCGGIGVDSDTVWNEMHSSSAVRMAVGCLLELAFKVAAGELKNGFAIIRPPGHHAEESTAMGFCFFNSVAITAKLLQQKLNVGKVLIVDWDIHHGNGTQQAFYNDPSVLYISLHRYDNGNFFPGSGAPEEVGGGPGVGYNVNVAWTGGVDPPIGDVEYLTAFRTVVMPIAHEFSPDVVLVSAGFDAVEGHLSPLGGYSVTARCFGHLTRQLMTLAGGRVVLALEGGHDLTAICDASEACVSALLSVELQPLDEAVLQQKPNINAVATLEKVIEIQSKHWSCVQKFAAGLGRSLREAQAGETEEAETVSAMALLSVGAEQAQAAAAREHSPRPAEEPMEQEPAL

Take `Cn1ccc2nc(N(Cc3ccc(-c4noc(C(F)(F)F)n4)s3)c3cnccn3)cnc21` [Example BO, N-{5-Methyl-5H-pyrrolo[2,3-b]pyrazin-2-yl}-N-({5-[5-(trifluoromethyl)-1,2,4-oxadiazol-3-yl]thiophen-2-yl}methyl)pyrazin-2-amine]: the IC50 in assay [1] was greater than 10000 nM; in assay [2] it was no more than 10000 nM; in assay [3], no more than 10000 nM; in assay [4] it was no more than 10000 nM; in assay [5] it was no more than 10000 nM; in assay [6], no more than 10000 nM.
Regarding `Cc1ncc(N(Cc2ccc(-c3noc(C(F)(F)F)n3)s2)c2cnccn2)c(C)n1` [Example DB, 2,4-Dimethyl-N-(pyrazin-2-yl)-N-({5-[5-(trifluoromethyl)-1,2,4-oxadiazol-3-yl]thiophen-2-yl}methyl)pyrimidin-5-amine], the concentration for half-maximal inhibition (IC50) was greater than 10000 nM in assay [1]; no more than 500 nM in assay [2]; no more than 500 nM in assay [3]; no more than 10000 nM in assay [4]; no more than 1000 nM in assay [5]; no more than 1000 nM in assay [6].
Regarding `Cc1cnc(C)c(N(Cc2ccc(-c3noc(C(F)(F)F)n3)s2)c2cnccn2)n1` [Example BU, 3,6-Dimethyl-N-(pyrazin-2-yl)-N-({5-[5-(trifluoromethyl)-1,2,4-oxadiazol-3-yl]thiophen-2-yl}methyl)pyrazin-2-amine], the IC50 was greater than 10000 nM in assay [1]; no more than 500 nM in assay [2]; no more than 500 nM in assay [3]; no more than 10000 nM in assay [4]; no more than 1000 nM in assay [5]; no more than 1000 nM in assay [6].
Take `Cc1ncnc(C)c1N(Cc1ccc(-c2noc(C(F)(F)F)n2)s1)c1cnccn1` [Example DC, 4,6-Dimethyl-N-(pyrazin-2-yl)-N-({5-[5-(trifluoromethyl)-1,2,4-oxadiazol-3-yl]thiophen-2-yl}methyl)pyrimidin-5-amine]: the IC50 in assay [1] is greater than 10000 nM; in assay [2], no more than 500 nM; in assay [3], no more than 500 nM; in assay [4], no more than 10000 nM; in assay [5], no more than 500 nM; in assay [6] it was no more than 1000 nM.
On to `CN(C)c1cc(N(Cc2ccc(-c3noc(C(F)(F)F)n3)s2)c2cnccn2)ncn1` [Example CI, N4,N4-Dimethyl-N6-(pyrazin-2-yl)-N6-({5-[5-(trifluoromethyl)-1,2,4-oxadiazol-3-yl]thiophen-2-yl}methyl)pyrimidine-4,6-diamine], for which the IC50 in assay [1], in assay [2], in assay [3], in assay [4], in assay [5] and in assay [6] was no more than 10000 nM in each case.
Turning to `COc1ncc(N(Cc2ccc(-c3noc(C(F)(F)F)n3)s2)c2cnccn2)nc1OC` [Example BW, 5,6-Dimethoxy-N-(pyrazin-2-yl)-N-({5-[5-(trifluoromethyl)-1,2,4-oxadiazol-3-yl]thiophen-2-yl}methyl)pyrazin-2-amine], the IC50 is greater than 10000 nM in assay [1]; no more than 10000 nM in assay [2]; no more than 10000 nM in assay [3]; no more than 10000 nM in assay [4]; no more than 10000 nM in assay [5]; no more than 10000 nM in assay [6].
Consider `CS(=O)(=O)c1cc(N(Cc2ccc(-c3noc(C(F)(F)F)n3)s2)c2cnccn2)ncn1` [Example CK, 6-Methanesulfonyl-N-(pyrazin-2-yl)-N-({5-[5-(trifluoromethyl)-1,2,4-oxadiazol-3-yl]thiophen-2-yl}methyl)pyrimidin-4-amine], for which the IC50 in assay [1] is greater than 10000 nM; in assay [2], no more than 1000 nM; in assay [3] it was no more than 10000 nM; in assay [4], no more than 10000 nM; in assay [5] it was no more than 10000 nM; in assay [6] it was no more than 10000 nM.
`FC(F)(F)c1nc(-c2ccc(CN(c3ccc(C4CC4)cn3)c3cnccn3)s2)no1` [Example AA, N-(5-Cyclopropylpyridin-2-yl)-N-({5-[5-(trifluoromethyl)-1,2,4-oxadiazol-3-yl]thiophen-2-yl}methyl)pyrazin-2-amine]: the IC50 in assay [1] is greater than 10000 nM; in assay [2], no more than 10000 nM; in assay [3] it was no more than 10000 nM; in assay [4], no more than 10000 nM; in assay [5], no more than 10000 nM; in assay [6], no more than 10000 nM.
As for `FC(F)(F)c1nc(-c2ccc(CN(c3cnccn3)c3nccc4nccnc34)s2)no1` [Example AL, N-{Pyrido[3,4-b]pyrazin-5-yl}-N-({5-[5-(trifluoromethyl)-1,2,4-oxadiazol-3-yl]thiophen-2-yl}methyl)pyrazin-2-amine], the IC50 is greater than 10000 nM in assay [1]; no more than 10000 nM in assay [2]; no more than 10000 nM in assay [3]; no more than 10000 nM in assay [4]; no more than 10000 nM in assay [5]; no more than 10000 nM in assay [6].
Consider `CN(C)C(=O)c1ccc(N(Cc2ccc(-c3noc(C(F)(F)F)n3)s2)c2cnccn2)nc1` [Example AC, N,N-Dimethyl-6-[pyrazin-2-yl({5-[5-(trifluoromethyl)-1,2,4-oxadiazol-3-yl]thiophen-2-yl}methyl)amino]pyridine-3-carboxamide], for which the IC50 was greater than 10000 nM in assay [1]; no more than 1000 nM in assay [2]; no more than 1000 nM in assay [3]; no more than 1000 nM in assay [4]; no more than 10000 nM in assay [5]; no more than 10000 nM in assay [6].
